In patent US20260242416A1, “ANTIMICROBIAL PEPTIDES” (priority 2023, published 2026):
In brackets after ≈: the same amount, converted by molar mass. Values belong to the compound of their own block, whether it stands above or below them. Where a SMILES comes first, the peptide text is derived from it.

Columns and labels:
S. aureus ATCC 29213 = format: cell-based, Staphylococcus aureus; conditions: ATCC 29213
Outline: (§1)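 CLSI broth microdilution adapted for cationic peptides, in Mueller-Hinton broth, inoculum 2-8×10^5 cfu/mL. Peptides serially diluted from 128 to 0.5 μg/mL in polypropylene plates, incubated 20-24 h at 37° C. MIC = lowest concentration without visible growth.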

E. coli ATCC 25922 = format: cell-based, Escherichia coli; conditions: ATCC 25922
Outline: as §1

[1] = system: Salmonella enterica serovar Enteritidis (human clinical isolate); format: cell-based; conditions: serovar Enteritidis (human clinical isolate)
Outline: as §1

[2] = system: E. coli ATCC 25922, Salmonella Enteritidis, S. aureus ATCC 29213; test: Broth microdilution, panel result (at least one / all strains), Example 2; format: cell-based; parameters: key to inhibitory activity (asterisk): *Indicates inhibitory activity; conditions: for inhibitory activity (asterisk): Table 14, against at least one of E. coli ATCC 25922, Salmonella Enteritidis, S. aureus ATCC 29213
Outline: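 CLSI broth microdilution adapted for cationic peptides, in MHB with a final inoculum of 2-8×10^5 cfu/mL in polypropylene plates. Peptides were serially diluted from 128 down to 0.5 μg/mL and incubated 20-24 h at 37° C. MIC is the lowest concentration with no visible growth.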

Compound: CC(C)C[C@H](NC(=O)CN)C(=O)N[C@@H](CC(C)C)C(=O)NCC(=O)N[C@@H](CCCCN)C(=O)N[C@H](C(=O)N[C@@H](CC(C)C)C(=O)NCC(=O)N[C@H](C(=O)NCC(=O)N[C@@H](CCCCN)C(=O)N[C@@H](CCCCN)C(=O)N[C@H](C(=O)N[C@@H](CC(C)C)C(=O)N[C@@H](CS)C(=O)O)C(C)C)C(C)C)C(C)C [PeNi4, GLLGKVLGVGKKVLC] (H-GLLGKVLGVGKKVLC-OH; N-terminus and C-terminus assumed)
MIC (ug/mL) S. aureus (S. aureus ATCC 29213): 4 to 8 µg/mL
MIC (ug/mL) E. coli (E. coli ATCC 25922): 8 to 16 µg/mL
MIC (ug/mL) S. Enteritidis [1]: 4 to 8 µg/mL
inhibitory activity (asterisk) [2]: 424.* GLLGKVLGVGKKVLC

Compound: CC[C@H](C)[C@H](NC(=O)CNC(=O)[C@H](C)NC(=O)[C@@H](NC(=O)[C@@H](NC(=O)[C@H](CO)NC(=O)[C@H](C)NC(=O)[C@@H](NC(=O)[C@H](CCCCN)NC(=O)[C@H](CCCCN)NC(=O)[C@H](C)NC(=O)[C@@H](NC(=O)[C@H](CC(=O)O)NC(=O)[C@H](CC(C)C)NC(=O)[C@H](Cc1c[nH]c2ccccc12)NC(=O)CN)[C@@H](C)CC)C(C)C)C(C)C)C(C)C)C(=O)N[C@H](C(=O)N[C@@H](CCCCN)C(=O)N[C@@H](CCCNC(=N)N)C(=O)O)C(C)C [LiVe1, GWLDIAKKVASVVAGIVKR] (H-GWLDIAKKVASVVAGIVKR-OH; N-terminus and C-terminus assumed)
MIC (ug/mL) S. aureus (S. aureus ATCC 29213): 16 to 32 µg/mL
MIC (ug/mL) E. coli (E. coli ATCC 25922): 4 to 8 µg/mL
MIC (ug/mL) S. Enteritidis [1]: 32 µg/mL (≈ 15.9 µM)
inhibitory activity (asterisk) [2]: 37.* GWLDIAKKVASVVAGIVKR

Compound: CC[C@H](C)[C@H](N)C(=O)N[C@@H](CO)C(=O)N[C@H](C(=O)N[C@@H](CCCCN)C(=O)N[C@@H](CCC(=O)O)C(=O)N[C@@H](C)C(=O)N[C@@H](CC(C)C)C(=O)N[C@@H](CCC(=O)O)C(=O)N[C@@H](Cc1c[nH]cn1)C(=O)N[C@@H](CO)C(=O)N[C@@H](Cc1ccccc1)C(=O)N[C@@H](Cc1ccccc1)C(=O)N[C@@H](Cc1c[nH]cn1)C(=O)N[C@H](C(=O)N[C@H](C(=O)N1CCC[C@H]1C(=O)N[C@@H](CCCNC(=N)N)C(=O)N[C@@H](CCCCN)C(=O)N[C@@H](Cc1c[nH]c2ccccc12)C(=O)N[C@@H](CS)C(=O)N[C@@H](CCCCN)C(=O)N[C@@H](CCCCN)C(=O)N[C@@H](Cc1c[nH]cn1)C(=O)O)C(C)C)[C@@H](C)O)[C@@H](C)CC [PoSn1] (H-ISIKEALEHSFFHTVPRKWCKKH-OH)
MIC (ug/mL) S. aureus (S. aureus ATCC 29213): 64/>128/>128 ug/mL
MIC (ug/mL) E. coli (E. coli ATCC 25922): 64/>128/>128 ug/mL
MIC (ug/mL) S. Enteritidis [1]: 64/>128/>128 ug/mL
inhibitory activity (asterisk) [2]: 936.* ISIKEALEHSFFHTVPRKWCKKH

Compound: C[C@H](NC(=O)CN)C(=O)N1CCC[C@H]1C(=O)N[C@@H](CCCCN)C(=O)NCC(=O)N[C@@H](CS)C(=O)N[C@@H](Cc1c[nH]c2ccccc12)C(=O)N[C@H](C(=O)N[C@@H](CCCCN)C(=O)N[C@@H](CO)C(=O)N[C@@H](Cc1ccc(O)cc1)C(=O)N1CCC[C@H]1C(=O)N1CCC[C@H]1C(=O)N[C@@H](CCCCN)C(=O)N1CCC[C@H]1C(=O)N[C@@H](CS)C(=O)N[C@@H](CO)C(=O)NCC(=O)N[C@@H](CCCCN)C(=O)N[C@@H](CCCNC(=N)N)C(N)=O)[C@@H](C)O [PeNi12] (H-GAPKGCWTKSYPPKPCSGKR-NH2; N-terminus and C-terminus assumed)
MIC (ug/mL) S. aureus (S. aureus ATCC 29213): >128/>128/>128 ug/mL
MIC (ug/mL) E. coli (E. coli ATCC 25922): >128/>128/>128 ug/mL
MIC (ug/mL) S. Enteritidis [1]: >128/>128/>128 ug/mL
spectrum of antimicrobial activity ([2]; panel of E. coli, Salmonella Enteritidis, S. aureus, up to 128 μg/mL): non-inhibitory against the panel of bacteria at the concentrations tested

Compound: CC[C@H](C)[C@H](NC(=O)[C@H](CCCNC(=N)N)NC(=O)[C@H](CCCNC(=N)N)NC(=O)[C@@H]1CCCN1C(=O)[C@H](CS)NC(=O)[C@H](CS)NC(=O)[C@H](Cc1ccc(O)cc1)NC(=O)[C@H](CS)NC(=O)[C@H](CC(C)C)NC(=O)[C@@H](NC(=O)[C@H](CCCNC(=N)N)NC(=O)[C@@H](NC(=O)[C@H](Cc1ccccc1)NC(=O)[C@H](C)N)C(C)C)[C@@H](C)CC)C(=O)N[C@@H](CCCCN)C(=O)N[C@@H](CCCNC(=N)N)C(=O)N[C@@H](CCCNC(=N)N)C(=O)O [TeRu2, AFVRILCYCCPRRIKRR] (H-AFVRILCYCCPRRIKRR-OH; N-terminus and C-terminus assumed)
MIC (ug/mL) S. aureus (S. aureus ATCC 29213): 128 µg/mL (≈ 59.4 µM)
MIC (ug/mL) E. coli (E. coli ATCC 25922): 64 to 128 µg/mL
MIC (ug/mL) S. Enteritidis [1]: > 128 µg/mL
inhibitory activity (asterisk) [2]: 994.* AFVRILCYCCPRRIKRR

More lines, main results first:

MIC (ug/mL) S. aureus (S. aureus ATCC 29213): 8 to 16 µg/mL
MIC (ug/mL) E. coli (E. coli ATCC 25922): 8 to 16 µg/mL
MIC (ug/mL) S. Enteritidis [1]: 64 to 128 µg/mL
Compound: CC[C@H](C)[C@H](NC(=O)CN)C(=O)N[C@@H](CC(C)C)C(=O)N[C@@H](CO)C(=O)NCC(=O)N[C@@H](CC(C)C)C(=O)N[C@@H](CC(C)C)C(=O)NCC(=O)N[C@@H](C)C(=O)NCC(=O)N[C@@H](CCCCN)C(=O)N[C@@H](CCCCN)C(=O)N[C@H](C(=O)N[C@H](C(=O)N[C@@H](CS)C(=O)NCC(=O)N[C@@H](CC(C)C)C(=O)N[C@@H](CO)C(=O)NCC(=O)N[C@@H](CC(C)C)C(=O)N[C@@H](CS)C(=O)O)C(C)C)[C@@H](C)CC [OdMa5] (H-GILSGLLGAGKKIVCGLSGLC-OH; N-terminus and C-terminus assumed)
inhibitory activity (asterisk) [2]: 1091.* GILSGLLGAGKKIVCGLSGLC

MIC (ug/mL) S. aureus (S. aureus ATCC 29213): 64 to 128 µg/mL
MIC (ug/mL) E. coli (E. coli ATCC 25922): 4 to 8 µg/mL
MIC (ug/mL) S. Enteritidis [1]: 32 µg/mL (≈ 15.7 µM)
Compound: CC(C)C[C@H](NC(=O)CN)C(=O)N[C@@H](CC(C)C)C(=O)NCC(=O)N[C@@H](CCCCN)C(=O)N[C@H](C(=O)N[C@@H](CC(C)C)C(=O)NCC(=O)N[C@H](C(=O)NCC(=O)N[C@@H](CCCCN)C(=O)N[C@@H](CCCCN)C(=O)N[C@H](C(=O)N[C@@H](CC(C)C)C(=O)N[C@@H](CS)C(=O)NCC(=O)N[C@H](C(=O)N[C@@H](CO)C(=O)NCC(=O)N[C@@H](CCCNC(=N)N)C(=O)N[C@@H](CS)C(=O)O)C(C)C)C(C)C)C(C)C)C(C)C [RaOm4] (H-GLLGKVLGVGKKVLCGVSGRC-OH; N-terminus and C-terminus assumed)
inhibitory activity (asterisk) [2]: 628.* GLLGKVLGVGKKVLCGVSGRC

MIC (ug/mL) S. aureus (S. aureus ATCC 29213): 64 to 128 µg/mL
MIC (ug/mL) E. coli (E. coli ATCC 25922): 8 to 16 µg/mL
MIC (ug/mL) S. Enteritidis [1]: > 128 µg/mL
Compound: CC[C@H](C)[C@H](NC(=O)[C@H](CC(C)C)NC(=O)[C@H](CCCCN)NC(=O)[C@H](CC(C)C)NC(=O)CNC(=O)CNC(=O)[C@H](CCCCN)NC(=O)[C@@H](NC(=O)[C@H](CC(C)C)NC(=O)[C@H](CCCCN)NC(=O)CNC(=O)[C@@H](NC(=O)[C@H](CC(C)C)NC(=O)CN)C(C)C)C(C)C)C(=O)NCC(=O)N[C@@H](Cc1c[nH]cn1)C(=O)N[C@H](C(=O)N[C@@H](C)C(=O)N[C@@H](CC(N)=O)C(=O)NCC(=O)O)C(C)C [RaSi1] (H-GLVGKLVKGGLKLIGHVANG-OH; N-terminus and C-terminus assumed)
inhibitory activity (asterisk) [2]: 2.* GLVGKLVKGGLKLIGHVANG

MIC (ug/mL) S. aureus (S. aureus ATCC 29213): 16 to 32 µg/mL
MIC (ug/mL) E. coli (E. coli ATCC 25922): 8 to 16 µg/mL
MIC (ug/mL) S. Enteritidis [1]: 128 µg/mL (≈ 64.9 µM)
Compound: CC[C@H](C)[C@H](NC(=O)[C@H](CCCCN)NC(=O)[C@H](CCCCN)NC(=O)CNC(=O)[C@@H](NC(=O)CNC(=O)[C@H](CC(C)C)NC(=O)[C@@H](NC(=O)CNC(=O)[C@H](CO)NC(=O)[C@H](CC(C)C)NC(=O)[C@H](CC(C)C)NC(=O)CN)C(C)C)C(C)C)C(=O)N[C@H](C(=O)N[C@@H](CS)C(=O)NCC(=O)N[C@@H](CC(C)C)C(=O)N[C@@H](CO)C(=O)NCC(=O)N[C@@H](CC(C)C)C(=O)N[C@@H](CS)C(=O)O)C(C)C [OdMa6] (H-GLLSGVLGVGKKIVCGLSGLC-OH; N-terminus and C-terminus assumed)
inhibitory activity (asterisk) [2]: 1092.* GLLSGVLGVGKKIVCGLSGLC

MIC (ug/mL) S. aureus (S. aureus ATCC 29213): 8 to 16 µg/mL
MIC (ug/mL) E. coli (E. coli ATCC 25922): 8 µg/mL (≈ 4.09 µM)
MIC (ug/mL) S. Enteritidis [1]: 32 to 64 µg/mL
Compound: CC[C@H](C)[C@H](NC(=O)CN)C(=O)N[C@@H](CC(C)C)C(=O)N[C@@H](CO)C(=O)NCC(=O)N[C@@H](CC(C)C)C(=O)N[C@@H](CC(C)C)C(=O)NCC(=O)N[C@@H](C)C(=O)NCC(=O)N[C@@H](CCCCN)C(=O)N[C@@H](CCCCN)C(=O)N[C@@H](CC(C)C)C(=O)N[C@@H](C)C(=O)N[C@@H](CS)C(=O)NCC(=O)N[C@@H](CC(C)C)C(=O)N[C@H](C(=O)NCC(=O)N[C@@H](CC(C)C)C(=O)N[C@@H](CS)C(=O)O)[C@@H](C)CC [OdTo1] (H-GILSGLLGAGKKLACGLIGLC-OH; N-terminus and C-terminus assumed)
inhibitory activity (asterisk) [2]: 153.* GILSGLLGAGKKLACGLIGLC

MIC (ug/mL) S. aureus (S. aureus ATCC 29213): > 128 µg/mL
MIC (ug/mL) E. coli (E. coli ATCC 25922): 64 to 128 µg/mL
MIC (ug/mL) S. Enteritidis [1]: > 128 µg/mL
Compound: CC[C@H](C)[C@H](NC(=O)CN)C(=O)N[C@@H](CC(C)C)C(=O)N[C@@H](CO)C(=O)NCC(=O)N[C@@H](CC(C)C)C(=O)N[C@@H](CC(C)C)C(=O)NCC(=O)N[C@@H](C)C(=O)NCC(=O)N[C@@H](CCCCN)C(=O)N[C@@H](CCCCN)C(=O)N[C@H](C(=O)N[C@H](C(=O)N[C@@H](CS)C(=O)NCC(=O)N[C@@H](CC(C)C)C(=O)N[C@@H](CO)C(=O)NCC(=O)N[C@@H](CCSC)C(=O)N[C@@H](CS)C(=O)O)C(C)C)[C@@H](C)CC [RaOm2] (H-GILSGLLGAGKKIVCGLSGMC-OH; N-terminus and C-terminus assumed)
inhibitory activity (asterisk) [2]: 629.* GILSGLLGAGKKIVCGLSGMC
